Data on four compounds can be found in DBAASP.

Test systems include Enterococcus faecium; Escherichia coli BL21; Pseudomonas aeruginosa; Bacillus subtilis PS832; Escherichia coli MG1655.
Common to all, as to assay: ≥ marks a high value that may be exact or a test limit, other limits are often not marked, values filed in µg/mL are converted to µM
Test [1] concerns Enterobacter cloacae beta-12.
Test [2] deals with Enterococcus faecalis ATCC 29212.
For test [3], the system named is Pseudomonas aeruginosa PA14.
The test system of test [4] is Staphylococcus aureus ATCC 25923.
Test [5] deals with Staphylococcus aureus K35.
The test system of test [6] is Staphylococcus aureus K52.
The subject of test [7] is Staphylococcus epidermidis ATCC 12228.
In test [8] the test system is Bacillus anthracis UM23-CL2.
Test [9] concerns Burkholderia cepacia J2540.
The test system of test [10] is Escherichia coli K12 MG1655.
In test [11] the test system is Staphylococcus aureus 68 HER 1049.

Values after ≈ are worked out from the molar mass of the structure shown. A value given as a limit tells only on which side of the number the result lay.

`CC[C@H](C)[C@H](NC(=O)CNC(=O)[C@H](CO)NC(=O)[C@H](CC(C)C)NC(=O)[C@@H](NC(=O)[C@H](CCCCN)NC(=O)CNC(=O)[C@@H](NC(=O)[C@H](CC(C)C)NC(=O)[C@@H]1CCCN1C(=O)[C@H](CC(C)C)NC(=O)[C@@H](N)Cc1ccccc1)[C@@H](C)CC)C(C)C)C(=O)N[C@@H](CC(C)C)C(N)=O` [FLPLIGKVLSGIL]: the MIC is at least 128 µM in test [1]; 20.9 µM (≈ 28.6 µg/mL) in test [2]; 17.5 µM (≈ 24 µg/mL) with Enterococcus faecium; at least 64 µM in the test with Escherichia coli BL21; at least 128 µM in test [3]; above 64 µM in the test with Pseudomonas aeruginosa. For the same compound, the MIC in [4] is 5.2 µM (≈ 7.12 µg/mL); in [5], 4.4 µM (≈ 6.02 µg/mL); in test [6] it was 4.4 µM (≈ 6.02 µg/mL); in test [7], at least 128 µM.

For `CC[C@H](C)[C@H](NC(=O)CN)C(=O)NCC(=O)N[C@@H](CCCCN)C(=O)N[C@@H](Cc1ccccc1)C(=O)N[C@@H](CC(C)C)C(=O)N[C@@H](Cc1cnc[nH]1)C(=O)N[C@@H](CO)C(=O)N[C@@H](C)C(=O)N[C@@H](CCCCN)C(=O)N[C@@H](CCCCN)C(=O)N[C@@H](Cc1ccccc1)C(=O)N[C@@H](Cc1ccccc1)C(=O)N[C@@H](CCCCN)C(=O)N[C@@H](CCCN=C(N)N)C(=O)N[C@H](C(=O)N[C@H](C(=O)N[C@@H](CCC(N)=O)C(=O)N[C@@H](CCCN=C(N)N)C(=O)N[C@H](C(=O)N[C@@H](CCCCN)C(=O)N[C@@H](CC(=O)O)C(=O)N[C@@H](Cc1ccccc1)C(=O)N[C@@H](CC(C)C)C(=O)N[C@@H](CCCN=C(N)N)C(=O)O)[C@@H](C)CC)C(C)C)[C@@H](C)CC` [GIGKFLHSAKKFFKRIVQRIKDFLR], the MIC in test [8] and in [9] was at least 82.4 µM in each case.

As for `CC[C@H](C)[C@H](NC(=O)[C@H](CC(C)C)NC(=O)[C@H](CCCN=C(N)N)NC(=O)[C@H](Cc1c[nH]c2ccccc12)NC(=O)CN)C(=O)N[C@@H](CCCCN)C(=O)N[C@@H](CCCCN)C(=O)N[C@H](C(=O)N[C@@H](CC(C)C)C(=O)N[C@@H](CCCN=C(N)N)C(=O)N[C@H](C(=O)N[C@@H](Cc1ccccc1)C(=O)N[C@@H](CCCCN)C(=O)NCC(=O)N[C@@H](CC(C)C)C(=O)O)C(C)C)[C@@H](C)CC` [GWRLIKKILRVFKGL], the MIC in [10] and in [11] was 2.19 µM (≈ 4 µg/mL) throughout.

`CC[C@H](C)[C@H](NC(=O)[C@H](CCCN=C(N)N)NC(=O)[C@H](CCCCN)NC(=O)[C@H](CC(C)C)NC(=O)[C@H](CC(C)C)NC(=O)CNC(=O)[C@H](Cc1cnc[nH]1)NC(=O)[C@@H](NC(=O)[C@@H](N)CCCN=C(N)N)[C@@H](C)O)C(=O)N[C@@H](CCCCN)C(=O)N[C@H](C(=O)N[C@@H](CC(C)C)C(=O)N[C@@H](CC(C)C)C(N)=O)[C@@H](C)O` [RTHGLLKRIKTLL]: the MIC in the test with Bacillus subtilis PS832 worked out at 4 µM (≈ 6.19 µg/mL); in the test on Escherichia coli MG1655, 8 µM (≈ 12.4 µg/mL).
